Test results reported in patent US8415351B2 (priority 2007, dated 2013).

Tests used:
[1] = test system: genotype 1b-Con1 subgenomic replicon cell line; assay: microbe, parasite or virus in culture; type: cell-based, HCV; conditions: Hepatitis C virus, read-out: EC50 1b
[2] = test system: genotype 1a-H77 subgenomic replicon cell line; assay: microbe, parasite or virus in culture; type: cell-based, HCV; conditions: Hepatitis C virus, read-out: EC50 1a

Structure (SMILES)	EC50 [1] [nM]	EC50 [2] [nM]
COc1c(/C=C/c2ccc(NS(C)(=O)=O)cc2)cc(-n2ccc(=O)[nH]c2=O)cc1-c1cccs1 [IB-L1-1.48, (E)-N-(4-(5-(2,4-dioxo-3,4-dihydropyrimidin-1(2H)-yl)-2-methoxy-3-(thiophen-2-yl)styryl)phenyl)methanesulfonamide]	< 10	100 to 1000
COc1c(/C=C/c2ccc(NS(C)(=O)=O)cc2CNCCC(C)C)cc(-n2ccc(=O)[nH]c2=O)cc1C(C)(C)C [IB-L1-1.31, (E)-N-(4-(3-tert-butyl-5-(2,4-dioxo-3,4-dihydropyrimidin-1(2H)-yl)-2-methoxystyryl)-3-((isopentylamino)methyl)phenyl)methanesulfonamide]	> 1000	> 1000
COc1c(-c2ccc3c(C)coc3c2)cc(-n2ccc(=O)[nH]c2=O)cc1C(C)(C)C [IB-L0-2.42, 1-(3-tert-butyl-4-methoxy-5-(3-methylbenzofuran-6-yl)phenyl)-pyrimidine-2,4(1H,3H)-dione]	100 to 1000	100 to 1000
CO/C(=C\c1cc(N2CCC(=O)NC2=O)cc(C(C)(C)C)c1OC)c1ccc(NS(C)(=O)=O)cc1 [IA-L1-1.17, (Z)—N-(4-(2-(3-tert-butyl-5-(2,4-dioxotetrahydropyrimidin-1(2H)-yl)-2-methoxyphenyl)-1-methoxyvinyl)phenyl)methanesulfonamide]	10 to 100	10 to 100
COc1c(-c2ccc3cc(NS(C)(=O)=O)ccc3c2)cc(-n2ccc(=O)[nH]c2=O)cc1-c1ccc(C)s1 [IB-L0-2.73, N-(6-(5-(2,4-dioxo-3,4-dihydropyrimidin-1(2H)-yl)-2-methoxy-3-(5-methylthiophen-2-yl)phenyl)naphthalen-2-yl)methanesulfonamide]	100 to 1000	100 to 1000
COc1c(-c2ccc3nc(NS(C)(=O)=O)ccc3c2)cc(-n2ccc(=O)[nH]c2=O)cc1C(C)(C)C [IB-L0-2.5, N-(6-(3-tert-butyl-5-(2,4-dioxo-3,4-dihydropyrimidin-1(2H)-yl)-2-methoxyphenyl)quinolin-2-yl)methanesulfonamide]	< 10	10 to 100
CO/N=C/c1cc(NS(C)(=O)=O)ccc1/C=C/c1cc(-n2ccc(=O)[nH]c2=O)cc(C(C)(C)C)c1OC [IB-L1-1.19]	< 10	10 to 100
COc1c(/C=C/c2ccc(NS(C)(=O)=O)cc2)cc(N2CCC(=O)NC2=O)cc1C(C)(C)C [IA-L1-1.9, (E)-N-(4-(3-tert-butyl-5-(2,4-dioxotetrahydropyrimidin-1(2H)-yl)-2-methoxystyryl)phenyl)methanesulfonamide]	< 10	10 to 100
COc1c(/C=C/c2ccc(NS(C)(=O)=O)cc2-c2ncco2)cc(-n2ccc(=O)[nH]c2=O)cc1C(C)(C)C [IB-L1-1.26, (E)-N-(4-(3-tert-butyl-5-(2,4-dioxo-3,4-dihydropyrimidin-1(2H)-yl)-2-methoxystyryl)-3-(oxazol-2-yl)phenyl)methanesulfonamide]	< 10	10 to 100
COc1c(-c2cccc(Cl)c2)cc(-n2ccc(=O)[nH]c2=O)cc1-c1ccc2cc(NS(C)(=O)=O)ccc2c1 [IB-L0-2.74, N-(6-(3′-chloro-5-(2,4-dioxo-3,4-dihydropyrimidin-1(2H)-yl)-2-methoxybiphenyl-3-yl)naphthalen-2-yl)methanesulfonamide]	100 to 1000	> 1000
COc1c(-c2ccc3cc(NS(C)(=O)=O)ccc3c2)cc(-n2ccc(=O)[nH]c2=O)cc1C(C)(C)C [IB-L0-2.3, N-(6-(3-tert-butyl-5-(2,4-dioxo-3,4-dihydropyrimidin-1(2H)-yl)-2-methoxyphenyl)naphthalen-2-yl)methanesulfonamide]	< 10	< 10
COc1c(/C=C/c2ccc(N)cc2)cc(N2CCC(=O)NC2=O)cc1C(C)(C)C [IA-L1-1.13, (E)-1-(3-(4-aminostyryl)-5-tert-butyl-4-methoxyphenyl)dihydropyrimidine-2,4(1H,3H)-dione]	100 to 1000	> 1000
COc1c(-c2ccccc2)cc(-n2ccc(=O)[nH]c2=O)cc1-c1ccc2cc(NS(C)(=O)=O)ccc2c1 [IB-L0-2.71, N-(6-(5-(2,4-dioxo-3,4-dihydropyrimidin-1(2H)-yl)-2-methoxy-biphenyl-3-yl)naphthalen-2-yl)methanesulfonamide]	10 to 100	100 to 1000
COc1c(-c2nc3cc(NS(C)(=O)=O)ccc3[nH]2)cc(N2CCC(=O)NC2=O)cc1C(C)(C)C [IA-L0-2.1, N-(2-(3-tert-butyl-5-(2,4-dioxotetrahydropyrimidin-1(2H)-yl)-2-methoxyphenyl)-1H-benzo[d]imidazol-5-yl)methanesulfonamide]	> 1000	> 1000
COc1c(-c2nc3ccc(NS(C)(=O)=O)cc3o2)cc(N2CCC(=O)NC2=O)cc1C(C)(C)C [IA-L0-2.5, N-(2-(3-tert-butyl-5-(2,4-dioxotetrahydropyrimidin-1(2H)-yl)-2-methoxyphenyl)benzo[d]oxazol-6-yl)methanesulfonamide]	> 1000	> 1000
COc1c(/C=C/c2cc(F)c(NS(C)(=O)=O)cc2C)cc(-n2ccc(=O)[nH]c2=O)cc1C(C)(C)C [IB-L1-1.15, (E)-N-(4-(3-tert-butyl-5-(2,4-dioxo-3,4-dihydropyrimidin-1 (2H)-yl)-2-methoxystyryl)-2-fluoro-5-methylphenyl)methanesulfonamide]	< 10	< 10
COc1c(-c2ccc3cc(NS(C)(=O)=O)ccc3c2)cc(-n2ccc(=O)[nH]c2=O)cc1-c1cccs1 [IB-L0-2.61, N-(6-(5-(2,4-dioxo-3,4-dihydropyrimidin-1(2H)-yl)-2-methoxy-3-(thiophen-2-yl)phenyl)naphthalen-2-yl)methanesulfonamide]	10 to 100	100 to 1000
COc1c(-c2ccc3c(c2)CC/C3=N\NS(C)(=O)=O)cc(-n2ccc(=O)[nH]c2=O)cc1C(C)(C)C [IB-L0-2.4, (E)-N′-(5-(3-tert-butyl-5-(2,4-dioxo-3,4-dihydropyrimidin-1(2H)-yl)-2-methoxyphenyl)-2,3-dihydro-1H-inden-1-ylidene)methanesulfonohydrazide]	< 10	–
COc1c(C2CC2c2ccc(NS(C)(=O)=O)cc2)cc(N2CCC(=O)NC2=O)cc1C(C)(C)C (stereo not drawn) [IA-L8-1.1, N-(4-(2-(3-tert-butyl-5-(2,4-dioxotetrahydropyrimidin-1(2H)-yl)-2-methoxyphenyl)cyclopropyl)phenyl)methanesulfonamide]	100 to 1000	100 to 1000
COc1c(Br)cc(-n2ccc(=O)[nH]c2=O)cc1-c1ccc2cc(NS(C)(=O)=O)ccc2c1 [IB-L0-2.69, N-(6-(3-bromo-5-(2,4-dioxo-3,4-dihydropyrimidin-1(2H)-yl)-2-methoxyphenyl)naphthalen-2-yl)methanesulfonamide]	10 to 100	100 to 1000
COc1c(/C=C/c2ccc(NS(C)(=O)=O)cc2)cc(-n2cc(F)c(=O)[nH]c2=O)cc1C(C)(C)C [IB-L1-1.2, (E)-N-(4-(3-tert-butyl-5-(5-fluoro-2,4-dioxo-3,4-dihydro-pyrimidin-1(2H)-yl)-2-methoxystyryl)phenyl)methanesulfonamide]	10 to 100	–
CC(C)(C)c1cc(/C=C/c2ccc(NS(C)(=O)=O)cc2)cc(N2CCC(=O)NC2=O)c1 [IA-L1-1.16, (E)-N-(4-(3-tert-butyl-5-(2,4-dioxotetrahydropyrimidin-1(2H)-yl)styryl)phenyl)methanesulfonamide]	10 to 100	10 to 100
COc1c(CCc2ccc(NS(C)(=O)=O)cc2)cc(-n2ccc(=O)[nH]c2=O)cc1C(C)(C)C [IB-L5-2-1.2, N-(4-(3-tert-butyl-5-(2,4-dioxo-3,4-dihydropyrimidin-1(2H)-yl)-2-methoxyphenethyl)phenyl)methanesulfonamide]	10 to 100	100 to 1000
COc1c(N2CCc3cc(NS(C)(=O)=O)ccc3C2)cc(-n2ccc(=O)[nH]c2=O)cc1C(C)(C)C [IB-L0-2.19, N-(2-(3-tert-butyl-5-(2,4-dioxo-3,4-dihydropyrimidin-1(2H)-yl)-2-methoxyphenyl)-1,2,3,4-tetrahydroisoquinolin-6-yl)methanesulfonamide]	10 to 100	10 to 100
COc1c(-c2ccc3nc(Cl)sc3c2)cc(-n2ccc(=O)[nH]c2=O)cc1C(C)(C)C [IB-L0-2.38, 1-(3-tert-butyl-5-(2-chlorobenzo[d]thiazol-6-yl)-4-methoxyphenyl)pyrimidine-2,4(1H,3H)-dione]	> 1000	> 1000
COC(=O)c1cc(NS(C)(=O)=O)ccc1/C=C/c1cc(-n2ccc(=O)[nH]c2=O)cc(C(C)(C)C)c1OC [IB-L1-1.7, (K)-methyl 2-(3-tert-butyl-5-(2,4-dioxo-3,4-dihydropyrimidin-1(2H)-yl)-2-methoxystyryl)-5-(methylsulfonamido)benzoate]	< 10	< 10
COc1c(/C=C/c2ccc(NS(C)(=O)=O)cc2)cc(-n2ccc(=O)[nH]c2=O)cc1C(C)(C)C [IB-L1-1.1, (E)-N-(4-(3-tert-butyl-5-(2,4-dioxo-3,4-dihydropyrimidin-1(2H)-yl)-2-methoxystyryl)phenyl)methanesulfonamide]	< 10	< 10
COc1c(/C=C/c2ccc(NS(C)(=O)=O)cc2C=NO)cc(-n2ccc(=O)[nH]c2=O)cc1C(C)(C)C [IB-L1-1.8, N-(4-{(E)-2-[3-tert-Butyl-5-(2,4-dioxo-3,4-dihydro-2H-pyrimidin-1-yl)-2-methoxy-phenyl]-vinyl}-3-(hydroxyimino-methyl)-phenyl)-methanesulfonamide]	< 10	10 to 100
COc1ccc(/C=C/c2cc(N3CCC(=O)NC3=O)cc(C(C)(C)C)c2OC)cc1 [IA-L1-1.14, (E)-1-(3-tert-butyl-4-methoxy-5-(4-methoxystyryl)phenyl) dihydropyrimidine-2,4(1H,3H)-dione]	> 1000	> 1000
CC(C)(C)c1cc(-c2ccc3cc(NS(C)(=O)=O)ccc3c2)cc(-n2ccc(=O)[nH]c2=O)c1 [IB-L0-2.8, N-(6-(3-tert-butyl-5-(2,4-dioxo-3,4-dihydropyrimidin-1(2H)-yl)phenyl)naphthalen-2-yl)methanesulfonamide]	10 to 100	–
